Measurements taken from patent publication US20030012820A1, “Compressible guaifenesin compositions, method for making same and method for making compressed guaifenesin dosage forms therefrom” (priority 2001, published 2003).

Assay: Particle size distribution by sieve analysis
Type: physicochemical
Conditions: US Mesh 20 (850 μm)
Source text: USP grade guaifenesin powders GP-A, GP-B, GP-C and GP-D having the respective particle size distributions set forth below, were used in the examples. Guaifenesin powder GP-A was made by Rhodia Inc., guaifenesin powders GP-B, GP-C and GP-D were obtained from other commercial sources. In the tables below, the result “% R” for a sample means the amount of sample retained on the corresponding screen size set forth in the table, expressed as a percent by weight of the total sample amount, and the result “% CR” for a sample means the cumulative amount of the sample retained on all screen sizes larger than the corresponding screen size, expressed as a percent by weight of the total sample amount.
(§1) The particle size distribution, bulk density, moisture content and flow properties were measured for each of the compositions of Examples 1-10 and for Comparison Examples C1-C4. Comparison Examples C1-C4 were commercially available directly compressible guaifenesin compositions. Particle size distribution was measured by sieve analysis using screens of the indicated mesh sizes. Bulk density was measured using a VanKel cylinder. Moisture content was measured by Karl Fischer titration. Flow properties were measured using a VanKel flowmeter with a strip chart recorder. […] Results are given below in TABLES 1A, 1B and 1C

Compound | % CR (cumulative amount retained) [%] | % R (amount retained on screen) [%]
COc1ccccc1OCC(O)CO (single isomer, unassigned) [GP-A, guaifenesin] | 0 | 0
COc1ccccc1OCC(O)CO (single isomer, unassigned) [GP-B, guaifenesin] | 0 | 0
COc1ccccc1OCC(O)CO (single isomer, unassigned) [GP-C, guaifenesin] | 0 | 0
COc1ccccc1OCC(O)CO (single isomer, unassigned) [GP-D, guaifenesin] | 0 | 0

Same assay, conditions: US Mesh 40 (425 μm)

Compound | % CR (cumulative amount retained) [%] | % R (amount retained on screen) [%]
COc1ccccc1OCC(O)CO (single isomer, unassigned) [GP-A, guaifenesin] | 0 | 0
COc1ccccc1OCC(O)CO (single isomer, unassigned) [GP-B, guaifenesin] | 0.4 | 0.4
COc1ccccc1OCC(O)CO (single isomer, unassigned) [GP-C, guaifenesin] | 2.0 | 2.0
COc1ccccc1OCC(O)CO (single isomer, unassigned) [GP-D, guaifenesin] | 0 | 0

Same assay, conditions: US Mesh 60 (250 μm)

Compound | % CR (cumulative amount retained) [%] | % R (amount retained on screen) [%]
COc1ccccc1OCC(O)CO (single isomer, unassigned) [GP-A, guaifenesin] | 0.8 | 0.8
COc1ccccc1OCC(O)CO (single isomer, unassigned) [GP-B, guaifenesin] | 0.4 | 0
COc1ccccc1OCC(O)CO (single isomer, unassigned) [GP-C, guaifenesin] | 3.2 | 1.2
COc1ccccc1OCC(O)CO (single isomer, unassigned) [GP-D, guaifenesin] | 0 | 0

Same assay, conditions: US Mesh 80 (180 μm)

Compound | % CR (cumulative amount retained) [%] | % R (amount retained on screen) [%]
COc1ccccc1OCC(O)CO (single isomer, unassigned) [GP-A, guaifenesin] | 3.2 | 2.4
COc1ccccc1OCC(O)CO (single isomer, unassigned) [GP-B, guaifenesin] | 2.4 | 2.0
COc1ccccc1OCC(O)CO (single isomer, unassigned) [GP-C, guaifenesin] | 3.2 | 0
COc1ccccc1OCC(O)CO (single isomer, unassigned) [GP-D, guaifenesin] | 3.2 | 3.2

Same assay, conditions: US Mesh 100 (150 μm)

Compound | % CR (cumulative amount retained) [%] | % R (amount retained on screen) [%]
COc1ccccc1OCC(O)CO (single isomer, unassigned) [GP-A, guaifenesin] | 7.6 | 4.4
COc1ccccc1OCC(O)CO (single isomer, unassigned) [GP-B, guaifenesin] | 3.2 | 0.8
COc1ccccc1OCC(O)CO (single isomer, unassigned) [GP-C, guaifenesin] | 4.0 | 0.8
COc1ccccc1OCC(O)CO (single isomer, unassigned) [GP-D, guaifenesin] | 9.6 | 6.4

Same assay, conditions: US Mesh 200 (75 μm)

Compound | % CR (cumulative amount retained) [%] | % R (amount retained on screen) [%]
COc1ccccc1OCC(O)CO (single isomer, unassigned) [GP-A, guaifenesin] | 38.4 | 30.8
COc1ccccc1OCC(O)CO (single isomer, unassigned) [GP-B, guaifenesin] | 11.2 | 8.0
COc1ccccc1OCC(O)CO (single isomer, unassigned) [GP-C, guaifenesin] | 11.2 | 7.2
COc1ccccc1OCC(O)CO (single isomer, unassigned) [GP-D, guaifenesin] | 60.0 | 50.4

Same assay, conditions: US Mesh 325 (45 μm)

Compound | % CR (cumulative amount retained) [%] | % R (amount retained on screen) [%]
COc1ccccc1OCC(O)CO (single isomer, unassigned) [GP-A, guaifenesin] | 76.8 | 38.4
COc1ccccc1OCC(O)CO (single isomer, unassigned) [GP-B, guaifenesin] | 58.0 | 46.8
COc1ccccc1OCC(O)CO (single isomer, unassigned) [GP-C, guaifenesin] | 77.6 | 66.4
COc1ccccc1OCC(O)CO (single isomer, unassigned) [GP-D, guaifenesin] | 89.6 | 29.6

Same assay, conditions: pan (<45 μm)

Compound | % CR (cumulative amount retained) [%] | % R (amount retained) [%]
COc1ccccc1OCC(O)CO (single isomer, unassigned) [GP-A, guaifenesin] | 100 | 23.2
COc1ccccc1OCC(O)CO (single isomer, unassigned) [GP-B, guaifenesin] | 100 | 42.0
COc1ccccc1OCC(O)CO (single isomer, unassigned) [GP-C, guaifenesin] | 100 | 22.4
COc1ccccc1OCC(O)CO (single isomer, unassigned) [GP-D, guaifenesin] | 100 | 10.4

Assay: Bulk density, VanKel cylinder
Type: physicochemical
Conditions: not given
Method: as §1

Compound | Bulk Density [g/cc]
COc1ccccc1OCC(O)CO (single isomer, unassigned) [GP-A, guaifenesin] | 0.45
COc1ccccc1OCC(O)CO (single isomer, unassigned) [GP-B, guaifenesin] | 0.41
COc1ccccc1OCC(O)CO (single isomer, unassigned) [GP-C, guaifenesin] | 0.35
COc1ccccc1OCC(O)CO (single isomer, unassigned) [GP-D, guaifenesin] | 0.40
